Test results: patent US20260263445A1, “TGF-BETA INHIBITOR FOR USE IN THE TREATMENT OF DEDIFFERENTIATED LIPOSARCOMA” (Institut Curie, priority 2023, published 2026)

B1: bintrafusp alfa: Bifunctional Fusion Protein Targeting TGF-β and PD-L1; CAS 1918149-01-5 (antibody, chains of the INN, looked up, V domains shown)
VH: EVQLLESGGGLVQPGGSLRLSCAASGFTFSSYIMMWVRQAPGKGLEWVSSIYPSGGITFYADTVKGRFTISRDNSKNTLYLQMNSLRAEDTAVYYCARIKLGTVTTVDYWGQGTLVTVSS
VL: QSALTQPASVSGSPGQSITISCTGTSSDVGGYNYVSWYQQHPGKAPKLMIYDVSNRPSGVSNRFSGSKSGNTASLTISGLQAEDEADYYCSSYTSSSTRVFGTGTKVTVL

Legend:
TGFβ pathway = experiment: Ex vivo inhibition of TGFβ pathway in DDLPS PDX Sil10AS; assay type: cell-based, human
Description: Tests and assays for determining whether a compound is a TGFβ inhibitor are well known by the skilled person in the art such as described in Frey et al., 2022; Szymańska et al., 2020. Determining whether a compound is a TGFβ inhibitor may also be performed using by using recombinant TGFβ proteins, competitive binding assays and measuring the binding affinities, measuring activated TGF-β complexes with other factors to form a serine/threonine kinase complex that binds to TGF-β receptors. […] In another particular embodiment, a TGFβ inhibitor according to the invention is at least as effective as galunisertib and/or as SB431542 in reducing phosphorylation level of SMAD2 and/or SMAD3 protein. Antibodies and/or kits to detect and quantify said phosphorylation level are well known from the skilled in the art and are commercially available.
(§1) The inventors also investigated the role of TGFβ in adipocytic differentiation in DDLPS, particularly advanced DDLPS using several TGFβ inhibitors, of a different mode of action and of different nature, such as compounds selected from the group consisting of TGFβ receptor R1/R2 inhibitors LY2109761 and LY364947; monoclonal anti-TGFβ antibodies BX-BE0057 and fresolimumab; TGFβ ligand trap such as luspatercept (a fusion protein that traps TGFβ ligands preventing them from binding to Type II TGFβ receptors) and bintrafusp alfa (a Bifunctional Fusion Protein Targeting TGF-β and PD-L1) and TQB2858 (an anti-TGF-β/PD-L1 antibody).

[1] = test system: DD tumor cells from 2 DDLPS PDX models; experiment: Ex vivo adipocytic differentiation of DD tumor cells from DDLPS PDX models; assay type: cell-based, human; details: ex vivo/in vitro, transcriptomic and phenotypic level
Description: DDLPS tumor cells keep the multipotent properties of their progenitors. […] Adipocytic differentiation is confirmed with the detection of green vacuoles (Bodipy staining) and osteogenic differentiation by red staining after Alizarin red treatment (Data not shown).
as §1

DDLPS PDX Sil10AS = experiment: Nude mice engrafted with DDLPS PDX Sil10AS: tumor growth and differentiation; assay type: in vivo
Protocol: 7 nude mice engrafted with the DDLPS PDX Sil10AS are treated with TGFβ inhibitor galunisertib. The tumor growth rate is compared to a control group of 7 nude mice engrafted with the same PDX model and treated with a vehicle. At the end of the experiment, tumor differentiation are assessed at the microscopic and transcriptomic level.

Molecule	inhibiting ex vivo TGFβ pathway, compared with galunisertib or SB431542 (TGFβ pathway)	adipocytic differentiation of DD tumor cells [1]	adipocytic differentiation of DD cells in treated PDX (DDLPS PDX Sil10AS; DDLPS PDX in nude mice, assessed at the microscopic and transcriptomic level at end of experiment)	tumor growth (DDLPS PDX Sil10AS; nude mice engrafted with DDLPS PDX Sil10AS, compared with vehicle group)
c1ccc(-c2[nH]ncc2-c2ccnc3ccccc23)nc1 [LY364947]	at least as effective than galunisertib or SB431542	restore adipocytic differentiation phenotype		
c1ccc(-c2nn3c(c2-c2ccnc4cc(OCCN5CCOCC5)ccc24)CCC3)nc1 [LY2109761]	at least as effective than galunisertib or SB431542	restore adipocytic differentiation phenotype		
NC(=O)c1ccc(-c2nc(-c3ccc4c(c3)OCO4)c(-c3ccccn3)[nH]2)cc1 [SB431542]		restores adipocytic differentiation		
Cc1cccc(-c2nn3c(c2-c2ccnc4ccc(C(N)=O)cc24)CCC3)n1 [galunisertib]		restores adipocytic differentiation	restore adipocytic differentiation	reduce tumor growth
TGFβ		prevented		
fresolimumab: monoclonal anti-TGFβ antibody; CAS 948564-73-6	at least as effective than galunisertib or SB431542	restore adipocytic differentiation phenotype		
B1	at least as effective than galunisertib or SB431542	restore adipocytic differentiation phenotype		
